Experimental findings from US20070128719A1, “ISOLATION AND EXPANSION OF ANIMAL CELLS IN CELL CULTURES” (TissueTech, Inc., priority 2003, published 2007) are described below.

One test has as its system human limbal explants. The test can be described thus: Epithelial outgrowth from human limbal explants cultured on intact AM with kinase inhibitors. The class given is cell-based. Particulars: for epithelial outgrowth: limbal explant on intact AM in SHEM, vs DMSO control; for time to re-initiation of outgrowth after switch to fresh medium / time to reach ~80% confluence after removal of inhibitor: after 17 days of treatment at 50 μM. The method, then:
Human AM was provided by Bio-Tissue (Miami, Fla.) and stored at −80° C. before use. AM was devitalized by freezing and thawing and washed three times with HBSS before being fastened onto a 30 mm culture insert, Millicel-CM (which generated an insert with 23 mm diameter covered by AM), and placed in a 6 well plate (Meller, D. and Tseng S C G, Invest Ophthalmol Vis Sci., 40:878-86, 1999).
After removal of excessive sclera, iris, corneal endothelium, conjunctiva, and Tenon's capsule, the limbal ring was separated by a 7.5 mm trephine from donor human corneas. Each limbal ring was rinsed 3 times with SHEM media. The limbal ring was then exposed for 10 min to 1.2 units/ml Dispase II in Mg^2+- and Ca^2+-free HBSS at 37° C. under 95% humidity and 5% CO2. Following three rinses with SHEM medium, each limbal ring was subdivided into two halves and each half further subdivided into 6 pieces of 1×1.5×2.5 mm explants. To eliminate variations of age, sex, and race, explants from the corresponding position of the same donor cornea were selected for the control and the experimental group, respectively. An explant was placed on the center of intact AM or plastic with the epithelial side facing up and cultured in SHEM medium. The experimental group was added with the inhibitor of desired concentration, while the control group was added with the same concentration of DMSO as the vehicle which was used to dissolve each inhibitor. The culture was maintained at 37° C. under 95% humidity and 5% CO2, the medium was changed every other day, and their outgrowth was monitored daily for 17 days using an inverted phase microscope (Nikon, Japan). The outgrowth area was digitized every other day by Adobe Photoshop 5.5 and analyzed by NIH ImageJ 1.30v (NIH, Bethesda, Md.).
All experiments were performed at least in triplicate. Summary data were reported as means±S.D., compiled and analyzed by MicroSoft Excel™ (MicroSoft, Redmont, Wash.). The mean and standard deviation were calculated for each group using the appropriate version of Student's unpaired t-test. Test results were reported as two-tailed p values, where p<0.05 was considered statistically significant.

For a further test, the system named is Akt. Kind of test: Western blot of Akt phosphorylation in limbal epithelial cells expanded on intact AM. The class given is cell-based, human. As to conditions: 50 μM. On the technique in general: In western blotting, separated proteins are transferred to a membrane and probed.
A further test deals with p44/42 MAPK. The test can be described thus: Western blot of p44/42 MAPK phosphorylation in limbal epithelial cells expanded on intact AM. Particulars: 50 μM. The class given is cell-based, human.
The next test relates to FKHRL1. The test can be described thus: Western blot of FKHRL1 phosphorylation in limbal epithelial cells expanded on intact AM. The class given is cell-based, human. Particulars: 50 μM.
In a further test the test system is TGF-β1 promoter. The test can be described thus: TGF-β promoter assay in human limbal epithelial cells. The class given is cell-based. As to the method: Human corneal fibroblasts were transiently transfected with the aforementioned adenoviral promoter constructs. […] 2, 2005 and entitled “Suppression Of TGF-B Activity By Amniotic Membrane Extracts, Compositions Thereof, And Methods For The Prevention And Suppression Of Scarring And Inflammation” in a dose-dependent manner (from 0.04 to 125 μg/ml) in human corneal fibroblasts. […] The suppressive effect of both AME and HA alone was lost after pretreatment with HAse. […] A similar result was obtained for TGF-βRII promoter activity.

Take `O=c1cc(N2CCOCC2)oc2c(-c3ccccc3)cccc12` [LY294002]: the epithelial outgrowth result in the test with human limbal explants (5 μM, up to 17 days) is given as “not significantly inhibited”. Moreover, the epithelial outgrowth entry in the test on human limbal explants (10 μM, up to 17 days) is recorded as “not significantly inhibited”. Also, in the test with human limbal explants, the “time to re-initiation of outgrowth after switch to fresh medium” value is on record as 2 days and the “time to reach ~80% confluence after removal of inhibitor” value was determined as 30 days.

Take `CCOC(=O)c1ccc2[nH]c3c(OC)c4[nH]c5ccc(C(=O)OCC)cc5c4cc3c2c1` [SR13668]: the “phosphorylation of Akt at Thr308 and Ser473” value with Akt is “abolished”. Also, the “reduction of the outgrowth rate” value in the test with human limbal explants (10 μM, from day 5 to day 11) is 50%. Besides, the “reduction of the outgrowth rate” value with human limbal explants (10 μM, from day 11 on) was 60%. For the same molecule, the epithelial outgrowth result in the test with human limbal explants (50 μM) is “completely inhibited”. For the same molecule, in the test with human limbal explants, the “time to re-initiation of outgrowth after switch to fresh medium” value is 2 days and the “time to reach ~80% confluence after removal of inhibitor” value was 30 days. Further, the “p44/42 MAPK phosphorylation” value with p44/42 MAPK is on record as “did not change”. Moreover, in the test with FKHRL1, the “Thr32 phosphorylation of FKHRL1” value is “abolished”.

Regarding hyaluronic acid [HA], the “suppressive effect on TGF-β1 promoter activity after pretreatment with HAse” value in the test with TGF-β1 promoter is listed as “lost”.
